According to patent US5994342A, “3-(substituted methyl)-4-oxa-1-azabicyclo[3.2.0]heptan-7-one derivatives useful as antitumor agents” (priority 1994, dated 1999):
Converted amounts (≈) assume the structure as drawn. Counter-ions that a name gives are not always drawn.

Tests used:
KB cells = assay: In vitro KB cell cytotoxicity assay (crystal violet); format: cell-based; conditions: Homo sapiens, 72 h, 3 days culture, read-out: KB Cell Cytotoxicity TD50
Description: In Vitro KB Cell Cytotoxicity Assay In vitro KB cell cytoxocity assay was done by modification of the crystal violet assay ([…] et al., Anal Biochem., 159, 109-113 (1986). KB cells were cultivated in Eagles minimum essential medium supplemented with 10% calf serum and incubated at 37° C. in a humidified 5% CO2 atmosphere to prepare a cell stock. Cells were counted using a neubauer hemocytometer and seeded in 96 well plates at 100 μl of 3×10^4 cells/ml and cultured for one day. […] Control wells were identical except that test compound was absent. These were cultured for three days. Then the cells were fixed with addition of 20 μl of 25% glutaraldehyde for 15 minutes, washed with water and dried. Then stained with 100 μl of 0.05% crystal violet for 15 minutes, washed with water and dried. The wells are eluted with […] of 0.05M NaH2 PO4 /ethanol (1:1 v/v) and read at OD540 on a multiscan spectrophotometer. Inhibition value of cell growth was calculated based on optical density using the following equation; [formula] TD50 values were calculated from linear regression ines of the log-logit plot.

Sarcoma 180 = assay: In vivo antitumor activity against Sarcoma 180; parameters: species or system male ICR mice; conditions: i.p., days 1, 5 and 9
Description: In Vivo Antitumor Activity Against Sarcoma 180
The compounds of general formula (I) were tested in vivo against Sarcoma 180 xenografted tumor to mice as illustrated herein after.
Sarcoma 180, 5×10^6 cells were inoculated by S.C. to male ICR mice (6 week old) on day 0. Drugs were administered on days 1, 5 and 9. Mice were killed and tumor weight was measured on day 12 after transplantation. The percentage inhibition of tumor growth was calculated from the mean tumor weight of the treated group compared with that of the control group. Number of mice used in each group was between 6 to 7.

[1] = Mus musculus, Sarcoma-180, ip, 288 h, 100 mg/kg/day, tumor s.c., tumor weight day 12, read-out: % Inhibition of tumor growth
[2] = Mus musculus, Sarcoma-180, ip, 288 h, 25 mg/kg/day, tumor s.c., tumor weight day 12, read-out: % Inhibition of tumor growth
[3] = Mus musculus, Sarcoma-180, ip, 288 h, 50 mg/kg/day, tumor s.c., tumor weight day 12, read-out: % Inhibition of tumor growth
[4] = Mus musculus, Sarcoma-180, ip, 288 h, 12.5 mg/kg/day, tumor s.c., tumor weight day 12, read-out: % Inhibition of tumor growth
[5] = Mus musculus, Sarcoma-180, ip, 288 h, 40 mg/kg/day, tumor s.c., tumor weight day 12, read-out: % Inhibition of tumor growth

| Compound | IC50 (KB cells) | Mortality in 12 days (Sarcoma 180; 100 mg/kg/day) | inhibition in vivo at 100 mg/kg (Sarcoma 180; [1]) | Mortality in 12 days (Sarcoma 180; 25 mg/kg/day) | Mortality in 12 days (Sarcoma 180; 50 mg/kg/day) | inhibition in vivo at 25 mg/kg (Sarcoma 180; [2]) | inhibition in vivo at 50 mg/kg (Sarcoma 180; [3]) | Mortality in 12 days (Sarcoma 180; 12.5 mg/kg/day) | inhibition in vivo at 12.5 mg/kg (Sarcoma 180; [4]) | further results |
| --- | --- | --- | --- | --- | --- | --- | --- | --- | --- | --- |
| N[C@@H](CC(=O)OC[C@H]1CN2C(=O)C[C@@H]2O1)C(=O)O (mixture of isomers) [Example 65B, (3RS,5SR)-3-(L-3-Amino-3-carboxypropanoyl)oxymethyl-4-oxa-1-azabicyclo[3.2.0]heptan-7-one] | 0.451 µg/mL | 0/6 | 55% |  |  |  |  |  |  |  |
| CC(C)[C@H](N)C(=O)N[C@@H](C)C(=O)OCC1CN2C(=O)CC2O1 (stereo partly drawn) [Example 49B, (3RS,5SR)-3-[L-2-N-(L-2-Amino-3-methylbutyryl)aminopropanoyl]oxymethyl-4-oxa-1-azabicyclo[3.2.0]heptan-7-one hydrochloride] | 0.537 µg/mL |  |  | 0/6 | 0/6 | 55.7% | 71% |  |  |  |
| O=C(NC[C@@H]1CN2C(=O)C[C@H]2O1)c1ccccc1 (racemic) [Example 23, (3RS,5RS)-3-(N-Benzoylaminomethyl)-4-oxa-1-azabicyclo[3.2.0]heptan-7-one] | 0.088 µg/mL (≈ 0.357 µM) | 0/6 | 27.8% |  |  |  |  |  |  |  |
| Cl.NCC(=O)OC[C@H]1CN2C(=O)C[C@@H]2O1 (racemic) [Example 39, (3RS,5SR)-3-(Aminoacetyl)oxymethyl-4-oxa-1-azabicyclo[3.2.0]heptan-7-one hydrochloride] | 0.613 µg/mL |  |  | 0/6 | 0/6 | 56.7% | 76.7% | 0/6 | 41.9% |  |
| C[C@H](N)C(=O)NCC(=O)OC[C@H]1CN2C(=O)C[C@@H]2O1.Cl (mixture of isomers) [Example 41B, (3RS,5SR)-3-[N-(L-2-Aminopropanoyl)aminoacetyl]oxymethyl-4-oxa-1-azabicyclo[3.2.0]heptan-7-one hydrochloride] | 0.295 µg/mL |  |  | 0/6 |  | 62.8% |  | 0/6 | 43.9% |  |
| CC(C)[C@H](N)C(=O)NCC(=O)NC[C@@H]1CN2C(=O)C[C@H]2O1.Cl (mixture of isomers) [Example 45B, (3RS,5RS)-3-[N-(L-2-amino-3-methylbutyryl)aminoacetyl]aminomethyl-4-oxa-1-azabicyclo[3.2.0]heptan-7-one hydrochloride] | 1.97 µg/mL |  |  | 0/6 | 0/6 | 39.3% | 81.7% |  |  |  |
| CC(=O)NC(COC(C)=O)C(=O)OC[C@H]1CN2C(=O)C[C@@H]2O1 (mixture of isomers) [Example 75B, (3RS,5SR)-3-(2-Acetamido-3-acetoxypropanoyl)oxymethyl-4-oxa-1-azabicyclo[3.2.0]heptan-7-one] | 0.567 µg/mL (≈ 1.8 µM) |  |  | 0/6 | 4/6 | 65.1% | 77.8% | 0/6 | 37.8% |  |
| Cl.NC[C@@H]1CN2C(=O)C[C@H]2O1 (racemic) [Example 22, (3RS,5RS)-3-aminomethyl-4-oxa-1-azabicyclo[3.2.0]heptan-7-one hydrochloride] | 0.344 µg/mL |  |  |  |  |  |  |  |  | Mortality in 12 days (Sarcoma 180; 40 mg/kg/day): 0/6; Mortality in 12 days (Sarcoma 180; 80 mg/kg/day): 0/6; inhibition in vivo at 40 mg/kg (Sarcoma 180; [5]): 26.7%; inhibition in vivo at 80 mg/kg (Sarcoma 180; Mus musculus, Sarcoma-180, ip, 288 h, 80 mg/kg/day, tumor s.c., tumor weight day 12, read-out: % Inhibition of tumor growth): 40.3% |
| CC(C)[C@H](N)C(=O)N[C@@H](COCc1ccccc1)C(=O)OCC1CN2C(=O)CC2O1 (stereo partly drawn) [Example 74B, (3RS,5SR)-3-[L-2-N-(L-2-N-Amino-3-methylbutyryl)amino-3-benzyloxypropanoyloxymethyl]-4-oxa-1-azabicyclo[3.2.0]heptan-7-one hydrochloride] | 0.669 µg/mL | 1/6 | 84.1% |  | 0/6 |  | 49.9% |  |  |  |
| CC(C)[C@@H](N)C(=O)N[C@@H](C(=O)OCC1CN2C(=O)CC2O1)C(C)C (stereo partly drawn) [Example 62B, (3RS,5SR)-3-[D-2-N-(D-2-Amino-3-methylbutyryl)amino-3-methylbutyryl]oxymethyl-4-oxa-1-azabicyclo[3.2.0]heptan-7-one hydrochloride] | 0.381 µg/mL | 0/6 | 42.1% |  |  |  |  |  |  |  |
| C[C@@H](NC(=O)Cc1cccs1)C(=O)N[C@H](C)C(=O)OCC1CN2C(=O)CC2O1 (stereo partly drawn) [Example 52, (3RS,5SR)-3-{D-2-N-[D-2-N-(Thiophen-2-yl)acetylaminopropanoyl]aminopropanoyl}oxymethyl-4-oxa-1-azabicyclo[3.2.0]heptan-7-one] | 0.197 µg/mL (≈ 0.481 µM) | 2/6 | 70.7% | 0/6 | 0/6 | 45.2% | 63.9% |  |  |  |
| CC(C)[C@H](N)C(=O)N[C@H](C(=O)OCC1CN2C(=O)CC2O1)C(C)C (stereo partly drawn) [Example 56B, (3RS,5SR)-3-[L-2-N-(L-2-Amino-3-methylbutyryl)amino-3-methylbutyryl]oxymethyl-4-oxa-1-azabicyclo-[3.2.0]heptan-7-one hydrochloride] | 0.283 µg/mL |  |  | 0/6 | 0/6 | 69.2% | 73.2% | 0/6 | 48.9% |  |
| O=C1C[C@H]2O[C@H](CNC(=O)C(F)(F)F)CN12 (racemic) [Example 7, (3RS,5RS)-3-[N-(Trifluoroacetyl)aminomethyl]-4-oxa-1-azabicyclo[3.2.0]heptan-7-one] | 0.205 µg/mL (≈ 0.861 µM) | 2/6 | 39.8% |  |  |  |  |  |  |  |
| O=C(Cc1cccs1)NC[C@@H]1CN2C(=O)C[C@H]2O1 (racemic) [Example 31, (3RS,5RS)-3-[N-(Thiophen-2-yl)acetylaminomethyl]-4-oxa-1-azabicyclo[3.2.0]heptan-7-one] | 0.098 µg/mL (≈ 0.368 µM) |  |  |  |  |  |  |  |  | Mortality in 12 days (Sarcoma 180; 40 mg/kg/day): 1/6; inhibition in vivo at 40 mg/kg (Sarcoma 180; [5]): 35.5% |
| CC(C)[C@H](NC(=O)[C@@H](N)CC(=O)O)C(=O)OCC1CN2C(=O)CC2O1 (stereo partly drawn) [Example 57B, (3RS,5RS)-3-N-[L-2-N-(L-2-Amino-3-carboxypropanoyl)amino-3-methylbutyryl]oxymethyl-4-oxa-1-azabicyclo[3.2.0]heptan-7-one] | 1.54 µg/mL (≈ 4.31 µM) |  |  | 0/6 | 1/6 | 58.1% | 83.1% | 0/6 | 40.9% |  |
| O=C(CCl)NC[C@@H]1CN2C(=O)C[C@H]2O1 (racemic) [Example 8, (3RS,5RS)-3-(N-Chloroacetylaminomethyl)-4-oxa-1-azabicyclo[3.2.0]heptan-7-one] | 0.084 µg/mL (≈ 0.384 µM) |  |  |  |  |  |  |  |  | Mortality in 12 days (Sarcoma 180; 8.8 mg/kg/day): 0/6; Mortality in 12 days (Sarcoma 180; 17.5 mg/kg/day): 0/6; Mortality in 12 days (Sarcoma 180; 35 mg/kg/day): 1/6; inhibition in vivo at 8.8 mg/kg (Sarcoma 180; Mus musculus, Sarcoma-180, ip, 288 h, 8.8 mg/kg/day, tumor s.c., tumor weight day 12, read-out: % Inhibition of tumor growth): 39%; inhibition in vivo at 17.5 mg/kg (Sarcoma 180; Mus musculus, Sarcoma-180, ip, 288 h, 17.5 mg/kg/day, tumor s.c., tumor weight day 12, read-out: % Inhibition of tumor growth): 51.3%; inhibition in vivo at 35 mg/kg (Sarcoma 180; Mus musculus, Sarcoma-180, ip, 288 h, 35 mg/kg/day, tumor s.c., tumor weight day 12, read-out: % Inhibition of tumor growth): 64% |
| CC(=O)N[C@@H](CO)C(=O)OCC1CN2C(=O)CC2O1 (stereo partly drawn) [Example 75A, (3RS,5SR)-3-(L-2-Acetamido-3-hydroxypropanoyl)oxymethyl-4-oxa-1-azabicyclo[3.20]heptan-7-one] | 1.98 µg/mL (≈ 7.27 µM) |  |  | 0/6 |  | 61.9% |  | 0/6 | 42.8% |  |
